From patent publication US8017611B2, “Pyridine and pyrazine derivatives -083” (AstraZeneca AB, priority 2007, dated 2011)
Read-outs that look alike come from different tables or passages of the source.

Tests used:
[1] = target: T1, recombinant Axl tyrosine kinase (Homo sapiens, UniProt P30530); assay: In vitro Axl kinase assay (AlphaScreen), Test (a); type: biochemical
T1 construct: encompassing amino acids 473 to 894 of Axl; GST (N); made in house; host or cells: SF126 insect cells
T1 sequence (P30530 473-894): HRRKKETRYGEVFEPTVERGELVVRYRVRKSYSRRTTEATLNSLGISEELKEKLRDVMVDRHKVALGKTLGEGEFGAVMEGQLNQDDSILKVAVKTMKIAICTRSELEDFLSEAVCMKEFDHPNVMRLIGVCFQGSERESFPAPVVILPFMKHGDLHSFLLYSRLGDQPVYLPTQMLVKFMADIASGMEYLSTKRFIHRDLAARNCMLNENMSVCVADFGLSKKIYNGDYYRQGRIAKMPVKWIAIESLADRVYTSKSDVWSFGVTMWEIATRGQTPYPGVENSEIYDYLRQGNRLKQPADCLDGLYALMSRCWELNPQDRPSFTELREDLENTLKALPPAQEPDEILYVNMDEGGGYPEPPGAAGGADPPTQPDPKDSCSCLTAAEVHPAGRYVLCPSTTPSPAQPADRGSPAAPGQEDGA

c-Met = target: T2, c-Met (Homo sapiens, UniProt P08581); assay: In vitro c-Met kinase assay (AlphaScreen), Test (c); type: biochemical; settings: read-out: IC50 versus c-Met tyrosine kinase
T2 construct: pY^1234pY^1235c-Met(1074-1366) kinase domain
Method: The assay used AlphaScreen technology (Gray et al., Analytical Biochemistry, 2003, 313: 234-245) to determine the ability of test compounds to prevent the activation of c-Met, in which wild type activated c-Met phosphorylates a mutant form of c-Met lacking catalytic activity but retaining the ability to be phosphorylated on the activating residues.
Kinase activity assays were performed in 384-well low-volume white plates (Greiner, 784075) with a total volume of 12 μL in each well. Each kinase reaction contained 40 pg (100 pM) pY^1234pY^1235c-Met(1074-1366) kinase domain, 44 ng (100 nM) cMyc-[D1204N,R1208Q]c-Met(1069-1366)-biotin, 25 mM HEPES (pH7.4), 0.1 mM sodium orthovanadate, 1 mM DTT, 0.01% (v/v) Tween-20, 10 mM magnesium chloride, 0.1% BSA, 50 μM ATP.
Various concentrations of test compounds were each added in 6% (v/v) DMSO to yield a final assay DMSO concentration of 1% (v/v). […] Plates were read using an Envision (Perkin Elmer) with excitation at 680 nm, emission […]. […]

[2] = target: T3, Axl expressed on NCI H1299 lung large cell carcinoma cells (Homo sapiens, UniProt P30530); assay: Cellular phospho-Axl ELISA assay, Test (b); settings: Test (b)
T3 sequence (P30530 26-894): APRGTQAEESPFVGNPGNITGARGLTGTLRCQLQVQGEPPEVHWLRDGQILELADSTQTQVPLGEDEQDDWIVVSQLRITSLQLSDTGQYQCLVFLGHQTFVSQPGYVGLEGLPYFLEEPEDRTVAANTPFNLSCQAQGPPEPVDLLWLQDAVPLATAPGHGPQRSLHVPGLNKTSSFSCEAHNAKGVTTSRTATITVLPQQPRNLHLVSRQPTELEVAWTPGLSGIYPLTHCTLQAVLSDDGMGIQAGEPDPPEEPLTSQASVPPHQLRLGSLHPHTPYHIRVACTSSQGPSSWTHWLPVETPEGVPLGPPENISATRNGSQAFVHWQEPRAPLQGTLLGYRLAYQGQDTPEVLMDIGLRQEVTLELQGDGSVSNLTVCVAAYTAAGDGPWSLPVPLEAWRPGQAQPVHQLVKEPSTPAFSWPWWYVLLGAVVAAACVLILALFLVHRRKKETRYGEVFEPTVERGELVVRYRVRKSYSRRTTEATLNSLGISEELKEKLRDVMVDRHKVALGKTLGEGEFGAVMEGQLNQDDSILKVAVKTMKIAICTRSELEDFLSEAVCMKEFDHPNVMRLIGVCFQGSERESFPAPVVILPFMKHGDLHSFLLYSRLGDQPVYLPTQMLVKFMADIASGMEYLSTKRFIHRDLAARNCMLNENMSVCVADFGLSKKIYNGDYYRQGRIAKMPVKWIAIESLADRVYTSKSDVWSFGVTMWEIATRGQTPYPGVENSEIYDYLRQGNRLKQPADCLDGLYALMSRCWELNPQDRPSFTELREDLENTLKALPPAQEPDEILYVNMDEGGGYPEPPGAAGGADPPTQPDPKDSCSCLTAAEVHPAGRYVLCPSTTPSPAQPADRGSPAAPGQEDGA
Method: This assay uses a conventional ELISA method to determine the ability of test compounds to inhibit phosphorylation of tyrosine residues in Axl.
100 μl Aliquots were seeded into each of the wells of a clear 96 well tissue culture plate and the plates were incubated overnight at 37° C. with 5% CO2 to allow the cells to adhere to the wells.
Aliquots of each compound concentration were added to the cells in each well using the Echo 550 (Labcyte Inc., Sunnyvale, Calif., US). Control cells received DMSO only. The cells were incubated for 2 hours at 37° C. with 5% CO2.
The resultant tissue culture plates were incubated on ice for 30 minutes to ensure full lysis.
The wells were washed 3 times with 250 μl per well of PBS containing 0.05% v/v Tween (PBS/T). The wells were treated with 3% w/v BSA in PBS at ambient temperature for 2 hours and subsequently washed 3 times with 250 μl per well of PBS/T.
50 μl Aliquots of the NCI H1299 cell lysates were added to the ELISA plates.
100 μl Aliquots of substrate solution were added to each of the wells and fluorescence was read on a Tecan Ultra plate reader (Tecan UK Ltd., Reading, Berkshire, UK).

T2 sequence (P08581 1074-1366): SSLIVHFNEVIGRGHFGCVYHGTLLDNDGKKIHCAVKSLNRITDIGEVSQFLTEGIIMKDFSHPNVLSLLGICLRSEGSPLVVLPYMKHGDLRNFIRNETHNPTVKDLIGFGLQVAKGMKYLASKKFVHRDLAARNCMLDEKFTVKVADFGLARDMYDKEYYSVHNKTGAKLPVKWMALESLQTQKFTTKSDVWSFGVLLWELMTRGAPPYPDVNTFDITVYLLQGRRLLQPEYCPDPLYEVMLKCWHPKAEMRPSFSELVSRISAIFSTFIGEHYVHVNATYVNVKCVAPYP

IC50 ([1]; Test (a), read-out: IC50 versus Axl tyrosine kinase): ~0.024 µM
% Axl tyrosine kinase inhibition at 1 μM concentration ([1]; test compound at 1 μM, first value quoted): 96.6%
IC50 (c-Met): ~1.95 µM
IC50 ([2]; read-out: IC50 versus cellular phospho-Axl, mean recalculated from a larger number of replicates, later recalculated): 0.111 µM
IC50 ([2]; read-out: IC50 versus cellular phospho-Axl, NCI H1299 cells stimulated with GAS6): ~0.039 µM
Structure (SMILES): CN1CCC(n2cc(-c3cnc(N)c(-c4nc5ccc(F)cc5o4)c3)cn2)CC1 [Example 7.2]
